Reference: PubChem BioAssay (NCI)
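Five concentrations, 48 hours, 96-well plates. GI50 marks 50% less growth. At the TGI there is no net growth.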

Key:
Test in all cases: NCI anticancer screen, dose series, 48 h
M14 melanoma = system: M14 melanoma
LOX IMVI melanoma = system: LOX IMVI melanoma
SNB-19 CNS = system: SNB-19 CNS
HS 578T breast = system: HS 578T breast
HL-60(TB) leukemia = system: HL-60(TB) leukemia
SK-MEL-28 melanoma = system: SK-MEL-28 melanoma
UACC-257 melanoma = system: UACC-257 melanoma
MDA-MB-435 = system: MDA-MB-435
TK-10 renal = system: TK-10 renal
CCRF-CEM leukemia = system: CCRF-CEM leukemia
MOLT-4 leukemia = system: MOLT-4 leukemia
786-0 renal = system: 786-0 renal
MDA-MB-231 breast = system: MDA-MB-231 breast
HT29 colon = system: HT29 colon
IGROV1 ovarian = system: IGROV1 ovarian
OVCAR-3 ovarian = system: OVCAR-3 ovarian
HCT-116 colon = system: HCT-116 colon
UACC-62 melanoma = system: UACC-62 melanoma
OVCAR-8 ovarian = system: OVCAR-8 ovarian
COLO 205 colon = system: COLO 205 colon
NCI-H226 lung = system: NCI-H226 lung
PC-3 prostate = system: PC-3 prostate
OVCAR-5 ovarian = system: OVCAR-5 ovarian
RXF 393 renal = system: RXF 393 renal
ACHN renal = system: ACHN renal
SN12C renal = system: SN12C renal
RPMI-8226 leukemia = system: RPMI-8226 leukemia
EKVX NSCLC = system: EKVX NSCLC
SK-OV-3 ovarian = system: SK-OV-3 ovarian

CCCCCCCCCCCCOC1C(C(COC2OC(C(O)CO)C3OC(C)(C)OC23)OC(=O)Nc2ccccc2)OC2OC(C)(C)OC21 (configuration not stated)
GI50 (M14 melanoma): 5.12 µM
TGI (M14 melanoma): 17 µM
GI50 (LOX IMVI melanoma): 7.82 µM
TGI (LOX IMVI melanoma): 20.9 µM
GI50 (SNB-19 CNS): 7.35 µM
TGI (SNB-19 CNS): 20.3 µM
GI50 (HS 578T breast): 6.13 µM
TGI (HS 578T breast): 18.6 µM
GI50 (HL-60(TB) leukemia): 0.484 µM
TGI (HL-60(TB) leukemia): 1.6 µM
GI50 (SK-MEL-28 melanoma): 7.24 µM
TGI (SK-MEL-28 melanoma): 19.3 µM
GI50 (UACC-257 melanoma): 9.94 µM
TGI (UACC-257 melanoma): 25.2 µM
GI50 (MDA-MB-435): 7.72 µM
TGI (MDA-MB-435): 21.6 µM
GI50 (TK-10 renal): 4.72 µM
TGI (TK-10 renal): 9.91 µM
TGI (CCRF-CEM leukemia): 6.66 µM
GI50 (MOLT-4 leukemia): 0.127 µM
TGI (MOLT-4 leukemia): 5.14 µM
GI50 (786-0 renal): 5.84 µM
TGI (786-0 renal): 17.2 µM
GI50 (MDA-MB-231 breast): 8.7 µM
TGI (MDA-MB-231 breast): 21.1 µM
GI50 (HT29 colon): 2.11 µM
TGI (HT29 colon): 4.68 µM
GI50 (IGROV1 ovarian): 4.94 µM
TGI (IGROV1 ovarian): 15.3 µM
GI50 (OVCAR-3 ovarian): 6.52 µM
TGI (OVCAR-3 ovarian): 19.6 µM
GI50 (HCT-116 colon): 2.14 µM
TGI (HCT-116 colon): 5.79 µM
GI50 (UACC-62 melanoma): 10.5 µM
TGI (UACC-62 melanoma): 22.5 µM
GI50 (OVCAR-8 ovarian): 8.24 µM
TGI (OVCAR-8 ovarian): 26.2 µM
GI50 (COLO 205 colon): 5.51 µM
TGI (COLO 205 colon): 16.6 µM
GI50 (NCI-H226 lung): 11.8 µM
TGI (NCI-H226 lung): 26.4 µM
GI50 (PC-3 prostate): 3.57 µM
TGI (PC-3 prostate): 13.1 µM
GI50 (OVCAR-5 ovarian): 4.84 µM
TGI (OVCAR-5 ovarian): 16.3 µM
GI50 (RXF 393 renal): 4.33 µM
TGI (RXF 393 renal): 12.6 µM
GI50 (ACHN renal): 4.82 µM
TGI (ACHN renal): 16.3 µM
GI50 (SN12C renal): 4.89 µM
TGI (SN12C renal): 16.6 µM
GI50 (RPMI-8226 leukemia): 3.93 µM
TGI (RPMI-8226 leukemia): 15.2 µM
GI50 (EKVX NSCLC): 9.94 µM
TGI (EKVX NSCLC): 22.2 µM
GI50 (SK-OV-3 ovarian): 15.6 µM
TGI (SK-OV-3 ovarian): 30 µM
